Source: US6576771B1, “Oxymethoxy-3-aryl-pyrone derivatives” (Bayer Aktiengesellschaft, priority 1995, dated 2003)

Experiments:
Sphaerotheca fuliginea = experiment: Sphaerotheca test (cucumber) / protective; details: active compound concentration 100 ppm, evaluation 10 days after inoculation
Description: Solvent: 4.7 parts by weight of acetone
Emulsifier: 0.3 parts by weight of alkylaryl polyglycol ether
After the spray coating has dried on, the plants are dusted with conidia of the fungus Sphaerotheca fuliginea.
The plants are then placed in a greenhouse at 23 to 24° C. and at a relative atmospheric humidity of about 75%.
Evaluation is carried out 10 days after the inoculation.

[1] = test system: mustard beetle larvae (Phaedon cochleariae); experiment: Phaedon larvae test; format: in vivo; details: after 7 days; active compound concentration 0.01%; cabbage leaves dipped
Description: (§1) Phaedon Larvae Test Solvent: 7 parts by weight of dimethylformamide Emulsifier: 1 part by weight of alkylaryl polyglycol ether […] Cabbage leaves (Brassica oleracea) are treated by being dipped into the preparation of the active compound of the desired concentration and are infested with mustard beetle larvae (Phaedon cochleariae), while the leaves are still moist.

[2] = test system: caterpillars of the diamond-back moth (Plutella maculipennis); experiment: Plutella test; format: in vivo; details: after 7 days; active compound concentration 0.1%; cabbage leaves dipped
Description: as §1, with “Plutella” for “Phaedon Larvae”, “caterpillars of the diamond-back moth (Plutella maculipennis),” for “mustard beetle larvae (Phaedon cochleariae),”

[3] = test system: caterpillars of the owlet moth (Spodoptera frugiperda); experiment: Spodoptera test; format: in vivo; details: after 7 days; active compound concentration 0.1%; cabbage leaves dipped
Description: Solvent: 7 parts by weight of dimethylformamide
(§2) Emulsifier: 1 part by weight of alkylaryl polyglycol ether
Cabbage leaves (Brassica oleracea) are treated by being dipped into the preparation of the active compound of the desired concentration and are infested with caterpillars of the owlet moth (Spodoptera frugiperda), while the leaves are still moist.
After the specified period of time, the destruction in % is determined. 100% means that all the caterpillars have been killed; 0% means that none of the caterpillars have been killed.

[4] = test system: larvae of the green rice leafhopper (Nephotettix cincticeps); experiment: Nephotettix test; format: in vivo; details: after 6 days; active compound concentration 0.1%; rice seedlings dipped
Description: Nephotettix Test Solvent: 7 parts by weight of dimethylformamide Emulsifier: 1 part by weight of alkylaryl polyglycol ether […] Rice seedlings (Oryzae sativa) are treated by being dipped into the preparation of the active compound of the desired concentration and are infested with larvae of the green rice leafhopper (Nephotettix cincticeps), while the seedlings are still moist.

[5] = test system: All larval stages of Lucilia cuprina (OP resistant); experiment: Test with fly larvae / development-inhibiting activity; format: in vivo; details: active compound concentration 1000 ppm
Description: Test with Fly Larvae/Development-inhibiting Activity
Test animals: All larval stages of Lucilia cuprina (OP resistant) [Pupae and adults (without contact with the active compound)]
Solvent: 35 parts by weight of ethylene glycol monomethyl ether 35 parts by weight of nonylphenol polyglycol ether
For each concentration, 30 to 50 larvae are introduced into test tubes containing horse meat (1 cm^3), onto which […] of the dilution under test are pipetted. The glass test tubes are placed in plastic beakers which have bottoms covered with sea sand and are kept in an air-conditioned room (26° C.±1.5° C., 70% relative humidity ±10%). The action is inspected after 24 hours and 48 hours (larvicidal action). After emigration of the larvae (approximately 72 h), the test tubes are removed and perforated plastic lids are placed on the beakers. After 1½ times the development period (emergence of the control flies), the emerged flies and the pupae/pupal cases are counted.
The criterion of activity used is the occurrence of death of the treated larvae after 48 h (larvicidal effect), or the inhibition of adult emergence from the pupae, or inhibition of pupal formation. The criterion used for the in-vitro activity of a substance is inhibition of fly development, or cessation of development prior to the adult stage. 100% larvicidal activity means that all larvae have died after 48 hours. 100% development inhibition activity means that no adult flies emerged.

[6] = test system: black bean aphids (Aphis fabae); experiment: Limit concentration test / root-systemic action; format: in vivo; details: active compound concentration 20 ppm in soil; beans (Vicia faba); leaves infested after 7 days, evaluated after a further 2 days
Source text: Limit Concentration Test/Root-systemic Action Test insect: Aphis fabae Solvent: 4 parts by weight of acetone Emulsifier: 1 part by weight of alkylaryl polyglycol ether […] The preparation of active compound is intimately mixed with soil. The concentration of the active compound in the preparation is of no importance in practise, only the amount by weight of active compound per unit volume of soil, which is given in ppm (=mg/l), being decisive. The treated soil is transferred into pots and these are planted with beans (Vicia faba). The active compound can in this way be taken up from the soil by the roots of the plants and be transported into the leaves. […] After a further 2 days, the evaluation is made by counting or estimating the dead animals. The root-systemic action of the active compound is deduced from the destruction figures.

[7] = test system: common spider mite (Tetranychus urticae); experiment: Tetranychus test (resistance); format: in vivo; details: after 13 days; active compound concentration 0.01%; bean plants dipped
Description: Tetranychus Test (Resistance)
Solvent: 3 parts by weight of dimethylformamide
as §2
After the specified period of time, the destruction in % is determined. 100% means that all the spider mites have been killed 0% means that none of the spider mites have been killed.

Row | SMILES | activity in comparison with the untreated control (Sphaerotheca fuliginea) | degree of destruction [1] | degree of destruction [2] | degree of destruction [4] | other results
1 | Cc1cc(C)c(-c2c(OCOCC(C)C)c(C)c(-c3ccc(F)cc3)oc2=O)c(C)c1 [Example 8] | 100% | – | – | – | –
2 | Cc1cc(C)c(-c2c(OCOCC(C)C)oc(-c3ccsc3)c(C)c2=O)c(C)c1 [Example 36, 2-[(2-Methyl-1-propoxy)-methoxy]-5-methyl-6-(3-thienyl)-3-(2,4,6-trimethyl-phenyl)-4-pyrone] | – | – | – | – | melting point: 102 to 104 °C
3 | CCOCOc1c(C)c(-c2ccc(F)cc2)oc(=O)c1-c1c(C)cc(C)cc1C [Example 4] | 100% | 100% | 100% | 100% | degree of destruction [3]: 100%; activity (larvicidal / development inhibition) [5]: 100%
4 | CCOCOc1c(C)c(C2CCCC2)oc(=O)c1-c1c(C)cc(C)cc1C [Example 32] | – | – | 100% | 100% | degree of destruction [3]: 100%
5 | C#CCOCOc1c(C)c(-c2ccc(F)cc2)oc(=O)c1-c1c(C)cc(C)cc1C [Example 7] | 100% | – | – | 100% | –
6 | CCOCOc1c(C)c(-c2ccccn2)oc(=O)c1-c1c(C)cc(C)cc1C [Example 26] | – | 100% | – | 100% | –
7 | Cc1cc(C)c(-c2c(OCOC(C)C)c(C)c(-c3ccccn3)oc2=O)c(C)c1 [Example 11] | 100% | – | – | 100% | degree of destruction (root-systemic action) [6]: 100%; degree of destruction [7]: 100%; activity (larvicidal / development inhibition) [5]: 100%
8 | Cc1cc(C)c(-c2c(OCOCC(C)C)c(C)c(-c3ccc(Cl)cc3)oc2=O)c(C)c1 [Example 2, 6-(4-chlorophenyl)-4-[(2-methyl-1-propoxy)-methoxy]-5-methyl-3-(2,4,6-trimethylphenyl)-2-pyrone] | 100% | – | – | – | –
9 | C#CCOCOc1c(C)c(C2CCCC2)oc(=O)c1-c1c(C)cc(C)cc1C [Example 33] | – | – | – | 100% | –
10 | Cc1cc(C)c(-c2c(OCOC(C)C)cc(C3(Cl)CC3)oc2=O)c(C)c1 [Example 21] | 100% | – | – | 100% | degree of destruction [7]: 100%
11 | Cc1cc(C)c(-c2c(OCOCC(C)C)c(C)c(-c3ccccn3)oc2=O)c(C)c1 [Example 10] | 100% | – | 100% | – | degree of destruction (root-systemic action) [6]: 100%; degree of destruction [7]: 100%; activity (larvicidal / development inhibition) [5]: 100%
12 | Cc1cc(C)c(-c2c(OCOC(C)C)c(C)c(-c3ccc(F)cc3)oc2=O)c(C)c1 [Example 9] | 100% | 100% | 100% | 100% | degree of destruction [3]: 100%; degree of destruction [7]: 100%; activity (larvicidal / development inhibition) [5]: 100%
13 | C#CCOCOc1c(C)c(-c2ccccn2)oc(=O)c1-c1c(C)cc(C)cc1C [Example 1, 5-methyl-6-(2-pyridyl)-4-propargyloxymethoxy-3-(2,4,6-trimethylphenyl)-2-pyrone] | 100% | – | – | 100% | degree of destruction (root-systemic action) [6]: 100%; inhibition at 1000 ppm ([5]; Lucilia cuprina, read-out: activity (larvicidal / development inhibition)): 100%
14 | Cc1cc(C)c(-c2c(OCOC(C)C)c(C)c(C3CCCC3)oc2=O)c(C)c1 [Example 34] | – | – | 100% | – | degree of destruction [3]: 100%
15 | Cc1cc(C)c(-c2c(OCOCC(C)C)c(C)c(-c3cccc(C)n3)oc2=O)c(C)c1 [Example 27] | – | 100% | 100% | 100% | –
16 | Cc1cc(C)c(-c2c(OCOC(C)C)c(C)c(-c3cccc(C)n3)oc2=O)c(C)c1 [Example 28] | – | 100% | 100% | 100% | –
17 | CCOCOc1cc(CC(C)C)oc(=O)c1-c1c(C)cc(C)cc1C [Example 5] | – | 100% | 100% | – | degree of destruction [3]: 100%
